The source of these data is patent US9358250B2, “Methods of using SCD1 antagonists” (Genentech, Inc., priority 2011, dated 2016).

Common to all, as to assay type: cell-based, human
Assay [1] has as its system phosphorylation of AKT, S6, and MAPK. Briefly: Western blot, FGF1-stimulated RT112 cells. As to conditions: rapamycin 50 nM, Ly294002 20 μM, PD325901 100 nM. Here is the method:
(§1) FIG. 8. FGFR3 signalling promotes the accumulation of matured SREBP1 and lipogenesis via PI3K-mTORC1 pathway. (A) Pharmacological inhibition of FGFR3 signalling. RT112 cells were serum starved for 20 hr, then treated with rapamycin (50 nM), Ly294002 (Ly294, 20 μM) and PD325901(PD901, 100 nM) for 2 hr, followed by stimulation with 30 ng/ml FGF1 plus 10 μg/mL of heparin for 10 min. Cell lysates were subjected to immunoblot analyses with indicated antibodies. Note the increased phosphorylation of MEK upon PD901 treatment, presumably due to a relief of feedback inhibition. (B) PI3K-mTORC1 and MEK inhibitors block FGF1 induction of SREBP1 and SCD1 in RT112 cells. RT112 cells were serum starved for 20 hr, treated with kinase inhibitors for 4 hr, followed by 24 hr incubation in medium supplemented with 30 ng/ml FGF1. Cell lysates were immunoblotted to detect SREBP1 maturation, SCD1 and FASN expression. (C) PI3K-mTORC1 and MEK inhibitors block FGF1-stimulated lipid synthesis. RT112 cells were treated the same as described in (B). [^14C]acetate was added for the final 4 hr incubation. The lipid fraction was extracted and [^14C]acetate incorporated into lipids was measured by scintillation counting. Data were normalized to sample protein content, and presented as mean+/−SD. […]
Background: In western blotting, separated proteins are transferred to a membrane and probed.

The subject of assay [2] is SREBP1 maturation, SCD1 and FASN expression. Briefly: Western blot, FGF1-treated RT112 cells. Here is the method:
FIG. 8. FGFR3 signalling promotes the accumulation of matured SREBP1 and lipogenesis via PI3K-mTORC1 pathway. (A) Pharmacological inhibition of FGFR3 signalling. RT112 cells were serum starved for 20 hr, then treated with rapamycin (50 nM), Ly294002 (Ly294, 20 μM) and PD325901(PD901, 100 nM) for 2 hr, followed by stimulation with 30 ng/ml FGF1 plus 10 μg/mL of heparin for 10 min. Cell lysates were subjected to immunoblot analyses with indicated antibodies. Note the increased phosphorylation of MEK upon PD901 treatment, presumably due to a relief of feedback inhibition. (B) PI3K-mTORC1 and MEK inhibitors block FGF1 induction of SREBP1 and SCD1 in RT112 cells. RT112 cells were serum starved for 20 hr, treated with kinase inhibitors for 4 hr, followed by 24 hr incubation in medium supplemented with 30 ng/ml FGF1. Cell lysates were immunoblotted to detect SREBP1 maturation, SCD1 and FASN expression. (C) PI3K-mTORC1 and MEK inhibitors block FGF1-stimulated lipid synthesis. RT112 cells were treated the same as described in (B). [^14C]acetate was added for the final 4 hr incubation. The lipid fraction was extracted and [^14C]acetate incorporated into lipids was measured by scintillation counting. Data were normalized to sample protein content, and presented as mean+/−SD.
(§2) It's worth noting that in Ca129 bladder cancer cells, rapamycin and Ly294002 blocked the accumulation of active SREBP1 and the expression of SCD1, consistent with the results observed in RT112 cells (FIG. 9). […] Thus, in bladder cancer cells, FGFR3 mainly signals through PI3K-mTORC1 axis to promote SREBP1 cleavage and activation, resulting in elevated de novo lipogenesis and fatty acid desaturation. The contribution of MEK-MAPK pathway may be cell line- and/or context-dependent.

The test system of assay [3] is total fatty acid synthesis. As to the kind of experiment: FGF1-stimulated lipid synthesis, [^14C]acetate, RT112 cells. The protocol:
as §1, with “(C) PI3K-mTORC1 and MEK inhibitors block FGF1-stimulated lipid synthesis. RT112 cells were treated the same as described in (B). [^14C]acetate was added for the final 4 hr incubation.” left out, “counting.” for “counting. Data were normalized to sample protein content, and presented as mean+/−SD.”
Lipogenic activity was determined by monitoring the incorporation of [1,2-^14C] acetate (Perkin Elmer, Waltham, Mass.) into fatty acids as reported (39). […] The fatty acids fractions were collected, dried under a steam of nitrogen, and analyzed by scintillation counting. The [^14C] radioactivity was normalized to sample protein content. […]

Assay [4] deals with matured SREBP1 and SCD1 expression. Briefly: Western blot, FGF1-treated Ca129 cells. Here is the method:
FIG. 9. FGFR3 signalling promotes the accumulation of matured SREBP1 and SCD1 expression via PI3K-mTORC1 pathway but not MEK-MAPK pathway in Ca129 cells. Ca129 cells were serum starved for 20 hr, treated for 4 hr with vehicle (DMSO), 50 nM rapamycin (Rapa), Ly294002 (Ly294, 20 μM) and PD325901(PD901, 100 nM). Then cells were cultured in medium supplemented with 30 ng/ml FGF1 for 24 hr. Cell lysates were analyzed by Western blot.
as §2

As for `O=C(NOC[C@H](O)CO)c1ccc(F)c(F)c1Nc1ccc(I)cc1F` [PD325901], the “FGF1-induced activation of intended target (phosphorylation)” value in assay [1] is on record as “blunted FGF1-induced activation of their intended target”. For the same compound, in assay [2], the FASN expression result is given as “reduced only modestly”; the SCD1 expression entry is “diminished significantly”; the “basal and FGF1-induced level of the cleaved active SREBP1” value is recorded as “substantially reduced”. Further, the “total fatty acid synthesis stimulated by FGF1” value in assay [3] is listed as “markedly suppressed”. Further, in assay [4], the “accumulation of active SREBP1” value was “only partially reduced” and the “expression / induction of SCD1” value was “did not have much effect”.
